Tests used:
[1] = biological target: FGFR4 (Homo sapiens, UniProt P22455); experiment: KINOMEscan binding affinity assay
[2] = biological target: T1, FGFR1 (Homo sapiens, UniProt P11362); experiment: KINOMEscan binding affinity assay
T1 construct: purchased Invitrogen (Waltham, MA, USA)

[3] = Mortality and body weight in xenograft studies; type: in vivo, CB17‐SCID mice; settings: 10 or 20 mg/kg q2d, oral gavage, xenograft mice
From the text: All animal studies were approved by the Institutional Animal Care and Use Committee. Male CB17‐SCID mice were purchased from Vital River Laboratory Animal Technology Inc. (Beijing, China). The right flanks of SCID mice were subcutaneously injected with 2 x 10^6 Ba/F3‐FGFR1, Ba/F3‐FGFR1‐V561F, or Ba/F3‐FGFR1‐V561M cells, respectively. When the average tumor volume reached 100–200 mm^3, mice bearing tumor were randomly divided into groups and treated with compounds or vehicle. All the compounds were suspended in 0.5% CMC‐Na aqueous solution. […] The body weight and tumor volume of animals were measured once every 2 days. Tumor volumes were calculated as L×W×W/2, where L and W are the length and width of the tumor, respectively. At the experiment terminal, tumor tissues were dissected, paraffin embedded, and sectioned for hematoxylin and eosin (H&E), immunohistochemistry (IHC), and TUNEL analysis.

[4] = system: FGFR1–FGFR3 cell lines; experiment: CCK-8 proliferation, cancer cells harboring FGFR aberrations (summary range); type: cell-based; settings: range over cell lines of Table 2; read-out: antiproliferative IC50 values, FGFR1–FGFR3 cell lines
Protocol: Cells were seeded in 96‐well plate in complete medium (1000–6000 cells/well) and cultured for overnight. Then the cells were exposed to gradient concentrations (0.0005–10 μM) of compounds. Cell proliferation was analyzed by Cell Counting Kit 8 (CK04, Dojindo Laboratories, Japan) after co‐incubation for a further 72 h. IC50 values were calculated by fitting of concentration–response curves using GraphPad Prism 8.01 software. Each assay was repeated at least three times.
The expression and activation levels of FGFR1–4 in these cells were determined via western blot experiments (Figure S1).

[5] = system: FGFR1 in all Ba/F3 stable cells; experiment: Western blot of total FGFR1 protein; type: cell-based; settings: 4 h
Protocol: (§1) Cells were treated with different concentrations of compound or DMSO for indicated time. Then, cells were lysed with 1 × SDS sample lysis buffer (recommended by CST). […] After blocking with 5% BSA in TBST solution (0.5% Tween‐20) at room temperature for 4 hrs, the membranes were incubated with the corresponding primary antibody (1:2000–1:200) at 4℃ overnight. After washing with TBST for 3–5 times, the HRP‐conjugated secondary antibodies were incubated for 2 hrs. The protein signals were detected with Amersham Imager 600 system (GE, Boston, MA, USA) using an ECL western blotting detection kit (Thermo Fisher Scientific, Waltham, MA, USA).
However, its effects on FGFR1 downstream signal pathway in A549 cells were very weak as a negative control.

[6] = biological target: T2, FGFR3‐K650E (Homo sapiens, UniProt P22607, K650E); experiment: KINOMEscan binding affinity assay
T2 construct: purchased KINOMEscan™ (commercial assay)

[7] = biological target: T3, FGFR3‐G697C (Homo sapiens, UniProt P22607, G697C); experiment: KINOMEscan binding affinity assay
T3 construct: purchased KINOMEscan™ (commercial assay)

[8] = biological target: FGFR3 (Homo sapiens, UniProt P22607); experiment: KINOMEscan binding affinity assay
[9] = biological target: T1, FGFR1; experiment: FRET-based Z′-Lyte kinase assay; type: biochemical
Protocol: FGFR1 and the Z′‐Lyte kinase assay kit were purchased from Invitrogen (Waltham, MA, USA) and the assays were performed according to the manufacturer's instructions as described previously.[27]

[10] = system: FGFR1 signal pathway in H1581; experiment: Western blot of FGFR1 signal pathway; type: cell-based
Protocol: as §1
(§2) Cell lysates were separated by sodium dodecyl sulfate‐polyacrylamide gel electrophoresis (SDS‐PAGE) and analyzed by western blot for phosphorylated FGFR1, FGFR1, phosphorylated FRS2, FRS2, phosphorylated AKT (Ser473), AKT, phosphorylated Erk, and Erk. GAPDH was used as a control

[11] = system: FGFR1 signal pathway in Ba/F3‐FGFR1; experiment: Western blot of FGFR1 signal pathway; type: cell-based; settings: Ba/F3‐FGFR1, 4 h, 3.7 nM to 300 nM
Protocol: as §1, §2

[12] = system: FGFR1 signal pathway in A204; experiment: Western blot of FGFR1 signal pathway; type: cell-based
Protocol: as §1, §2

[13] = system: FGFR1 signal pathway in A549; experiment: Western blot of FGFR1 signal pathway; type: cell-based
Protocol: as §1, §2

[14] = system: Ba/F3‐FGFR1; experiment: Apoptosis assay by flow cytometry (Annexin V / 7-AAD); type: cell-based; settings: Ba/F3‐FGFR1, 100 nM, 48 h
Protocol: After incubation, cells were collected and washed twice with pre‐cold PBS. About 6 × 10^5 cells were resuspended in 100 μl of 1× BD binding buffer solution (#556454, BD), and then stained with 7‐ADD (#559925, BD) and Annexin V‐PE (#556422, BD) in the dark for 15 min. Finally, 400 μl of 1×BD binding buffer solution were added to stop dyeing. The cells were then measured on a Guava easyCyte flow cytometer (Merck, USA).

[15] = biological target: FGFR2 (Homo sapiens, UniProt P21802); experiment: FRET-based Z′-Lyte kinase assay; type: biochemical
[16] = system: A204; experiment: CCK-8 cell proliferation assay; type: cell-based; settings: Homo sapiens, A204; FGFR1 amplification; CCK-8, 72 h; read-out: antiproliferative IC50, A204
[17] = biological target: T4, FGFR3‐V555 M (Homo sapiens, UniProt P22607, V555M); experiment: KINOMEscan binding affinity assay
T4 construct: purchased KINOMEscan™ (commercial assay)

[18] = system: FGFR1 signal pathway in Ba/F3‐FGFR1‐V561M; experiment: Western blot of FGFR1 signal pathway; type: cell-based; settings: 300 nM
Protocol: as §1, §2

[19] = system: A549; experiment: CCK-8 cell proliferation assay; type: cell-based; settings: Homo sapiens, A549, 72 h, negative control; CCK-8, 72 h; read-out: antiproliferative IC50, A549

T1 sequence (P11362 22-822): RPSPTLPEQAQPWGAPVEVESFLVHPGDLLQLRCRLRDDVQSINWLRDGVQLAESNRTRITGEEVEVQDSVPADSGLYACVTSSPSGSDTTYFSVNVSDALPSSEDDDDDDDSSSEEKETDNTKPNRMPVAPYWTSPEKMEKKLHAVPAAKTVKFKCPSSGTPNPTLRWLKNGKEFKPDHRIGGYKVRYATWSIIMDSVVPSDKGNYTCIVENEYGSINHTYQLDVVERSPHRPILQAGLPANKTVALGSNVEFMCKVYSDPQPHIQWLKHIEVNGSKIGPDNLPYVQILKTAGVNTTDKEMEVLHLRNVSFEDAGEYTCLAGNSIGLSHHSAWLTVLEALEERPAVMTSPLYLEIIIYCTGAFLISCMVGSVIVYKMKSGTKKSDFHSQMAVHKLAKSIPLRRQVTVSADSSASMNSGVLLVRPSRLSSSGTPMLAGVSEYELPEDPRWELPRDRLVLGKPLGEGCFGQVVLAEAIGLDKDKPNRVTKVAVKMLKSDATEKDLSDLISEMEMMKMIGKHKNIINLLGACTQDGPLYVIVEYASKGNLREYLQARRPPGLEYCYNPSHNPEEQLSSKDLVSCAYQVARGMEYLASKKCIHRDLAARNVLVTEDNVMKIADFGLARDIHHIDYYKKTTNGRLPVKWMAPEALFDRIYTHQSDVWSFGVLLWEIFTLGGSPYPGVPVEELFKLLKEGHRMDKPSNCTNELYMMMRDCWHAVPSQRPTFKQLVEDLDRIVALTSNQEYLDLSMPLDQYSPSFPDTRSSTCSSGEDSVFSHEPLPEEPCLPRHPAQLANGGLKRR
Chain of FGFR2 (P21802 22-821): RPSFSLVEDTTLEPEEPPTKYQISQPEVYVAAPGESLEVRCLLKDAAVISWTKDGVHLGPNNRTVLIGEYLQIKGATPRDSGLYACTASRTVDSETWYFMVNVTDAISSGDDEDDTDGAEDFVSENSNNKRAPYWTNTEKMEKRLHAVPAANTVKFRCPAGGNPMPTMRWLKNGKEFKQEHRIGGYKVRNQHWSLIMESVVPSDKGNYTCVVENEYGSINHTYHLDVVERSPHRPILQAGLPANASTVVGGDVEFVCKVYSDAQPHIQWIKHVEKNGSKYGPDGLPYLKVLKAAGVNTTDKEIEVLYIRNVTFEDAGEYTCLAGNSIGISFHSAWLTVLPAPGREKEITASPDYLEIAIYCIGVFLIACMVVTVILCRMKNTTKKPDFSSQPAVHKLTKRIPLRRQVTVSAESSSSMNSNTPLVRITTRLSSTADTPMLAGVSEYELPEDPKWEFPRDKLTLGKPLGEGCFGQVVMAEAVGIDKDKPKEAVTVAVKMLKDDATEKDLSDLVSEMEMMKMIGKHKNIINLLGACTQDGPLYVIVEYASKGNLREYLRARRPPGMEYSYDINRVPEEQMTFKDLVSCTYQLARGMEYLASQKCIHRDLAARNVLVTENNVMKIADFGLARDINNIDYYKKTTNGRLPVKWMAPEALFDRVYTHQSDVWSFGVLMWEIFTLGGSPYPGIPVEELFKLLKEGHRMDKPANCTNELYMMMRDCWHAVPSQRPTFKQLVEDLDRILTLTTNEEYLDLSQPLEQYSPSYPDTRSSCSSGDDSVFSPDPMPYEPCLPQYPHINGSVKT
Chain of FGFR3 (P22607 23-806): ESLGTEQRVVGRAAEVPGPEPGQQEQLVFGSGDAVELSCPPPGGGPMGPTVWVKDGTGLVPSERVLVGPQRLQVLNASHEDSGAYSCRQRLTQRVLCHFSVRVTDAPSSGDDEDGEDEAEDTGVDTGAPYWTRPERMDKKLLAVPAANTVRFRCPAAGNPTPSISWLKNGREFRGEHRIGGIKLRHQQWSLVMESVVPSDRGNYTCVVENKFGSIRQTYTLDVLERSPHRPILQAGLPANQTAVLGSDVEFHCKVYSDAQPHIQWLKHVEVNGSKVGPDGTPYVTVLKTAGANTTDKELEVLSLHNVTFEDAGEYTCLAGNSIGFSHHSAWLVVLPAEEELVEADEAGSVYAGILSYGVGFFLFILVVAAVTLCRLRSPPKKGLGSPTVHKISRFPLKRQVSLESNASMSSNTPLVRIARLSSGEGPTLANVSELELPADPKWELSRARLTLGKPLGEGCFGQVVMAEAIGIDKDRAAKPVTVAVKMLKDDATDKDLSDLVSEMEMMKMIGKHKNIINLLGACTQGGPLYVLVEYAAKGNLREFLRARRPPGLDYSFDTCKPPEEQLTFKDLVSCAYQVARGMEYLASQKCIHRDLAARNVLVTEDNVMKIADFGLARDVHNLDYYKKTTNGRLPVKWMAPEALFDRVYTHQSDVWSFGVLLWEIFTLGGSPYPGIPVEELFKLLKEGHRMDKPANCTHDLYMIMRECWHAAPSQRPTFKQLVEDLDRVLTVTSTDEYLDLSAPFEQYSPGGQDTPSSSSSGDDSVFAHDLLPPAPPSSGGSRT
Chain of FGFR4 (P22455 22-802): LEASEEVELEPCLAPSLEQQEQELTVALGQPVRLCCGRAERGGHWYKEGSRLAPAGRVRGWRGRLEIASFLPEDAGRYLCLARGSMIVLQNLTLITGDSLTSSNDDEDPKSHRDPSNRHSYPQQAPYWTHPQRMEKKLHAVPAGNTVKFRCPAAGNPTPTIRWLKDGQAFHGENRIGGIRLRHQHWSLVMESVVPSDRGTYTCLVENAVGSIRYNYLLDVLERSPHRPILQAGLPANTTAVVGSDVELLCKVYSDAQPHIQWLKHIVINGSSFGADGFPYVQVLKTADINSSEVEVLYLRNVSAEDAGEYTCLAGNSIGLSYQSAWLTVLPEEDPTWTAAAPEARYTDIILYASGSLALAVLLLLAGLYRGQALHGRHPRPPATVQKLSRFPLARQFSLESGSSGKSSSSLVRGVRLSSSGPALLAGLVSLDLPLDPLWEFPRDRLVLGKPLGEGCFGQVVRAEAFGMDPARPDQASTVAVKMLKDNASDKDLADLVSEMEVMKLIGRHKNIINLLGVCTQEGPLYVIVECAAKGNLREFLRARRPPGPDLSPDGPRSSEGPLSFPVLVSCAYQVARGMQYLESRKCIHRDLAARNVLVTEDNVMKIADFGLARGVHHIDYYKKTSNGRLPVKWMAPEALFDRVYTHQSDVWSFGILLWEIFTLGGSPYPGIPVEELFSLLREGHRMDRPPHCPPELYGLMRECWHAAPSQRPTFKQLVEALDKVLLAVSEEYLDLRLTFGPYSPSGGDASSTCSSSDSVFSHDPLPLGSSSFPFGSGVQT
T3 sequence (P22607 23-806 G697C): as the sequence (P22607 23-806) above, with G675C counted along it
T2 sequence (P22607 23-806 K650E): as the sequence (P22607 23-806) above, with K628E counted along it
T4 sequence (P22607 23-806 V555M): as the sequence (P22607 23-806) above, with V533M counted along it

For `Cc1ccc(C(=O)Nc2ccc(CN3CCN(C)CC3)c(C(F)(F)F)c2)cc1C#Cc1cnc2[nH]ncc2c1` [GZD824], which Kd [1] is on record?
Its Kd is 19 ± 1.4 nM.

And the Kd [2]?
The Kd was 7.3 ± 0.3 nM.

And the “mortality and body weight during experiment” value [3]?
Its value is “no mortality or significant loss of body weight”.

And the IC50 [4]?
The IC50 was 4 to 91 nM.

And the “dose showing obvious degradation of FGFR1” value [5]?
Its value is at least 33.3 nM.

What about the Kd [6] of the same compound?
Its Kd is 11 nM.

And the Kd [7]?
The Kd was 39.5 ± 7.8 nM.

What about the Kd [8] of the same compound?
Its Kd is 17 ± 1.4 nM.

What about the IC50 [9] of the same compound?
The IC50 was 4.14 ± 0.96 nM.

What about the EC50 ([9]; Figure 1B curve fit) of the same compound?
Its EC50 is 4.82 nM.

And the “dose with obvious inhibition of pFRS2 and pERK” value ([10]; H1581)?
Its value is at least 3.7 nM.

And the “total level of FGFR1 protein expression” value ([10]; H1581)?
The value was “no obvious effect”.

And the “FGFR1 phosphorylation, downstream FRS2 and ERK1/2” value ([10]; H1581, 4 h, 3.7 nM to 300 nM)?
Its value is “dose‐dependent inhibition”.

And the “effect on pAKT” value ([10]; H1581, even at 300 nM)?
Its value is “no effect”.

What about the “FGFR1 phosphorylation, downstream FRS2 and ERK1/2” value [11] of the same compound?
The value was “dose‐dependent inhibition”.

And the “dose with obvious inhibition of pFRS2 and pERK” value ([12]; A204)?
The value was at least 3.7 nM.

And the “total level of FGFR1 protein expression” value ([12]; A204)?
The value was “no obvious effect”.

What about the “effect on pAKT” value ([12]; A204, even at 300 nM) of the same compound?
Its value is “no effect”.

What about the “total level of FGFR1 protein expression” value ([13]; A549) of the same compound?
The value was “no obvious effect”.

And the “effects on FGFR1 downstream signal pathway” value ([13]; A549, negative control)?
The value was “very weak”.

And the apoptosis [14]?
The apoptosis was 65.73%.

What about the IC50 [15] of the same compound?
The IC50 was 2.77 ± 0.082 nM.

What about the EC50 ([15]; Figure 1B curve fit) of the same compound?
Its EC50 is 2.72 nM.

And the IC50 [16]?
The IC50 was 24.4 ± 6.2 nM.

What about the Kd [17] of the same compound?
The Kd was 19.5 ± 4.9 nM.

Which “activation of FGFR1 and its signal pathway” value [18] does the source give for `CCN1CCN(c2ccc(Nc3cc(N(C)C(=O)Nc4c(Cl)c(OC)cc(OC)c4Cl)ncn3)cc2)CC1` [BGJ398] here?
The value was “no effects”.

And the IC50 [19]?
The IC50 was 8730 ± 1930 nM.
